{"source": "patent EP1145714A1", "about": "“DRUGS” (Takeda Chemical Industries, Ltd., priority 1998, dated 2000)", "key": {"[1]": {"test_system": "vomiting induced by morphine in ferrets", "assay": "Vomiting induced by morphine in ferrets, oral dosing", "type": "in vivo", "conditions": "morphine 0.3 mg/kg subcutaneous; for A: Number of ferrets with retching/number of tested ferrets / B: Frequency of retching (mean ± SD) / C: Time period until first retching (minute; mean ± SD) / D: Duration of retching (minute; mean ± SD) / E: Number of ferrets with vomiting/number of tested ferrets / F: Frequency of vomiting (mean ± SD) / G: Time period until first vomiting (minute; mean ± SD) / H: Duration of vomiting (minute; mean ± SD): 30 minutes", "protocol": "Male 6 or 7 ferrets (1.6 to 2.0 kg) per one group were used. Morphine was subcutaneously administered at0.3 mg/0.3 ml/kg. 2.5 hours before morphine dosing, a small amount of a feed was given to the animals. 30 minutes thereafter, predetermined doses of the compound No. 3 were orally given. To a control animal group under no fasting was orally given a predetermined volume of 0.5 % methyl cellulose solution. A predetermined volume of ondansetron was orally given to the animals under fasting. To a control animal group of ondansetron under fasting was orally given a predetermined volume of physiological saline. The frequency of vomiting was counted up to 30 minutes after morphine dosing. The compound No. 3 was suspended in 0.5 % methyl cellulose solution and was then orally dosed at a ratio of 1 ml per 1 kg body weight. An injection of ondansetron at a concentration of 0.2 w/v % was orally dosed. Additionally, 0.5 % methyl cellulose solution was orally given at a ratio of 1 ml per 1 kg body weight, while physiological saline was orally given at a ratio of 1 ml per 1 kg body weight. The data relating to the frequency of vomiting, the latency and the time period from the occurrence of vomiting to the termination thereof were statistically analyzed by the Dunnett test or t test, with reference to the difference from the control group.\n(§1) The retching suppression ratio and vomiting suppression ratio were calculated by the following formula. [Frequency of retching or vomiting in control] - [Frequency of retching or vomiting in animals dosed with compound No. 3] / [Frequency of retching or vomiting in control] x 100 (%) [formula]"}, "[2]": {"test_system": "acute and delayed vomiting induced by cisplatin in ferrets", "assay": "Acute and delayed vomiting induced by cisplatin in ferrets, oral dosing once or twice daily", "type": "in vivo", "conditions": "cisplatin 5 mg/kg i.p.; for Duration (in hour; mean ± SD) / Latency (in hour; mean ± SD) / On day 0 (0-24 hours): frequency of retching and vomiting (mean ± SD) / On day 0 (0-24 hours): number of ferrets with vomiting/ number of tested ferrets / On days 1-2(24-48 hours): frequency of retching and vomiting (mean ± SD) / On days 1-2(24-48 hours): number of ferrets with vomiting/ number of tested ferrets / Total frequency of retching and vomiting (on days 0-2; 0-72 hours): twice daily", "protocol": "Male 4 to 6 ferrets (1.2 to 2.2 kg) per one group were used. Cisplatin was intraperitoneally given at 5 mg/5ml/kg. 30 minutes prior to cisplatin administration and 24 and 48 hours after cisplatin administration, predetermined doses of the compound No. 3 were orally given in case of dosing once daily. 30 minutes prior to cisplatin administration and 12, 24, 36, 48 and 60 hours after cisplatin administration, predetermined doses of the compound No. 3 were orally given in case of dosing twice daily. 30 minutes prior to the dosing of the compound No. 3, a small amount of a feed was given to the animals in any of the cases. Similarly, a predetermined volume of 0.5 % methyl cellulose solution was similarly given orally to a control animal group under no fasting. A predetermined dose of ondansetron was orally given to the animals under fasting. To a control animal group of ondansetron, a predetermined volume of physiological saline was orally given to the animals under fasting. The frequency of vomiting was counted in number, up to 72 hours after cisplatin administration.\nThe compound No. 3 was suspended in 0.5 % methyl cellulose solution, for oral dosing at predetermined doses at a ratio of 1 ml per 1 kg body weight. An injection of ondansetron at 0.2 w/v % concentration was orally given at a predetermined volume. Additionally, 0.5 % methyl cellulose solution was orally given at a ratio of 1 ml per 1 kg body weight, while physiological saline was orally given at a ratio of 0.5 to 1.5 ml per 1 kg body weight. The data relating to the frequency of vomiting, the time period (latency) until first vomiting and the time period from the occurrence of vomiting to the termination thereof were statistically analyzed by the Dunnett test, with reference to the difference from the control group.\nas §1, with “The acute vomiting suppression ratio, delayed vomiting” for “The retching”, “and total” for “and”"}}}
{"compound": "Cc1ccc(-c2c3n(c(=O)c4ncccc24)CC[C@@H](C)CN(Cc2cc(C(F)(F)F)cc(C(F)(F)F)c2)C3=O)cc1", "note": "[Cpd. No.3, (9R)-7-[3,5-bis(trifluoromethyl)benzyl]-6,7,8,9,10,11-hexahydro-9-methyl-5-(4-methylphenyl)-6,13-dioxo-13H-[1,4]diazocino[2,1-g][1,7]naphthylidine]", "values": [{"measurement": "Acute vomiting suppression ratio", "setting": "[1]; 1 mg/kg p.o.", "value": 31, "unit": "% NS"}, {"measurement": "Effect on retching and vomiting (in words)", "setting": "[1]; 1 mg/kg p.o.", "value": "likely to be suppressed"}, {"measurement": "Pseudo-vomiting suppression ratio", "setting": "[1]; 1 mg/kg p.o.", "value": 43, "unit": "% NS"}, {"measurement": "A: Number of ferrets with retching/number of tested ferrets", "setting": "[1]; 1 mg/kg p.o.", "value": "4/6"}, {"measurement": "B: Frequency of retching (mean ± SD)", "setting": "[1]; 1 mg/kg p.o.", "value": "18.3 ± 7.0"}, {"measurement": "C: Time period until first retching (minute; mean ± SD)", "setting": "[1]; 1 mg/kg p.o.", "value": "12.3 ± 5.6", "unit": "min"}, {"measurement": "D: Duration of retching (minute; mean ± SD)", "setting": "[1]; 1 mg/kg p.o.", "value": "5.5 ± 1.9", "unit": "min"}, {"measurement": "E: Number of ferrets with vomiting/number of tested ferrets", "setting": "[1]; 1 mg/kg p.o.", "value": "4/6"}, {"measurement": "F: Frequency of vomiting (mean ± SD)", "setting": "[1]; 1 mg/kg p.o.", "value": "2.5 ± 1.0"}, {"measurement": "G: Time period until first vomiting (minute; mean ± SD)", "setting": "[1]; 1 mg/kg p.o.", "value": "13.3 ± 5.4", "unit": "min"}, {"measurement": "H: Duration of vomiting (minute; mean ± SD)", "setting": "[1]; 1 mg/kg p.o.", "value": "3.8 ± 1.9", "unit": "min"}, {"measurement": "Acute vomiting suppression ratio", "setting": "[1]; 3 mg/kg p.o.", "value": 86, "unit": "% a"}, {"measurement": "Effect on retching and vomiting (in words)", "setting": "[1]; 3 mg/kg p.o.", "value": "significantly suppressed"}, {"measurement": "Pseudo-vomiting suppression ratio", "setting": "[1]; 3 mg/kg p.o.", "value": 79, "unit": "% b"}, {"measurement": "A: Number of ferrets with retching/number of tested ferrets", "setting": "[1]; 3 mg/kg p.o.", "value": "5/6"}, {"measurement": "B: Frequency of retching (mean ± SD)", "setting": "[1]; 3 mg/kg p.o.", "value": "6.8 ± 2.6", "unit": "b"}, {"measurement": "C: Time period until first retching (minute; mean ± SD)", "setting": "[1]; 3 mg/kg p.o.", "value": "10.5 ± 3.9", "unit": "min"}, {"measurement": "D: Duration of retching (minute; mean ± SD)", "setting": "[1]; 3 mg/kg p.o.", "value": "2.7 ± 1.7", "unit": "min"}, {"measurement": "E: Number of ferrets with vomiting/number of tested ferrets", "setting": "[1]; 3 mg/kg p.o.", "value": "1/6"}, {"measurement": "F: Frequency of vomiting (mean ± SD)", "setting": "[1]; 3 mg/kg p.o.", "value": "0.5 ± 0.5", "unit": "a"}, {"measurement": "G: Time period until first vomiting (minute; mean ± SD)", "setting": "[1]; 3 mg/kg p.o.", "value": "25.8 ± 4.2", "unit": "b minute"}, {"measurement": "H: Duration of vomiting (minute; mean ± SD)", "setting": "[1]; 3 mg/kg p.o.", "value": "1.5 ± 1.5", "unit": "min"}, {"measurement": "Acute vomiting suppression ratio (0 to 24 hours after cisplatin dosing)", "setting": "[2]; 0.03 mg/kg p.o. twice daily", "value": 25, "unit": "% NS"}, {"measurement": "Delayed vomiting suppression ratio (24 to 72 hours after cisplatin dosing)", "setting": "[2]; 0.03 mg/kg p.o. twice daily", "value": 31, "unit": "% NS"}, {"measurement": "Total vomiting suppression ratio (0 to 72 hours after cisplatin dosing)", "setting": "[2]; 0.03 mg/kg p.o. twice daily", "value": 30, "unit": "% NS"}, {"measurement": "Duration (in hour; mean ± SD)", "setting": "[2]; 0.03 mg/kg × 2 p.o.", "value": "50.8 ± 7.3", "unit": "h"}, {"measurement": "Latency (in hour; mean ± SD)", "setting": "[2]; 0.03 mg/kg × 2 p.o.", "value": "13.4 ± 4.9", "unit": "h"}, {"measurement": "On day 0 (0-24 hours): frequency of retching and vomiting (mean ± SD)", "setting": "[2]; 0.03 mg/kg × 2 p.o.", "value": "24.8 ± 14.8"}, {"measurement": "On day 0 (0-24 hours): number of ferrets with vomiting/ number of tested ferrets", "setting": "[2]; 0.03 mg/kg × 2 p.o.", "value": "3/4"}, {"measurement": "On days 1-2(24-48 hours): frequency of retching and vomiting (mean ± SD)", "setting": "[2]; 0.03 mg/kg × 2 p.o.", "value": "245.8 ± 34.3"}, {"measurement": "On days 1-2(24-48 hours): number of ferrets with vomiting/ number of tested ferrets", "setting": "[2]; 0.03 mg/kg × 2 p.o.", "value": "4/4"}, {"measurement": "Total frequency of retching and vomiting (on days 0-2; 0-72 hours)", "setting": "[2]; 0.03 mg/kg × 2 p.o.", "value": "270.5 ± 43.7"}, {"measurement": "Acute vomiting suppression ratio (0 to 24 hours after cisplatin dosing)", "setting": "[2]; 0.1 mg/kg p.o. twice daily", "value": 21, "unit": "% NS"}, {"measurement": "Delayed vomiting suppression ratio (24 to 72 hours after cisplatin dosing)", "setting": "[2]; 0.1 mg/kg p.o. twice daily", "value": 37, "unit": "% a"}, {"measurement": "Effect on delayed vomiting induced by cisplatin (in words)", "setting": "[2]; 0.1 mg/kg p.o. twice daily", "value": "significantly suppressed"}, {"measurement": "Total vomiting suppression ratio (0 to 72 hours after cisplatin dosing)", "setting": "[2]; 0.1 mg/kg p.o. twice daily", "value": 36, "unit": "% a"}, {"measurement": "Duration (in hour; mean ± SD)", "setting": "[2]; 0.1 mg/kg × 2 p.o.", "value": "54.8 ± 6.1", "unit": "h"}, {"measurement": "Latency (in hour; mean ± SD)", "setting": "[2]; 0.1 mg/kg × 2 p.o.", "value": "13.3 ± 6.3", "unit": "h"}, {"measurement": "On day 0 (0-24 hours): frequency of retching and vomiting (mean ± SD)", "setting": "[2]; 0.1 mg/kg × 2 p.o.", "value": "26.0 ± 11.2"}, {"measurement": "On day 0 (0-24 hours): number of ferrets with vomiting/ number of tested ferrets", "setting": "[2]; 0.1 mg/kg × 2 p.o.", "value": "3/4"}, {"measurement": "On days 1-2(24-48 hours): frequency of retching and vomiting (mean ± SD)", "setting": "[2]; 0.1 mg/kg × 2 p.o.", "value": "222.0 ± 20.7", "unit": "a"}, {"measurement": "On days 1-2(24-48 hours): number of ferrets with vomiting/ number of tested ferrets", "setting": "[2]; 0.1 mg/kg × 2 p.o.", "value": "4/4"}, {"measurement": "Total frequency of retching and vomiting (on days 0-2; 0-72 hours)", "setting": "[2]; 0.1 mg/kg × 2 p.o.", "value": "248.0 ± 10.7", "unit": "a"}, {"measurement": "Acute vomiting suppression ratio (0 to 24 hours after cisplatin dosing)", "setting": "[2]; 0.3 mg/kg p.o. twice daily", "value": 100, "unit": "% NS"}, {"measurement": "Delayed vomiting suppression ratio (24 to 72 hours after cisplatin dosing)", "setting": "[2]; 0.3 mg/kg p.o. twice daily", "value": 41, "unit": "% b"}, {"measurement": "Total vomiting suppression ratio (0 to 72 hours after cisplatin dosing)", "setting": "[2]; 0.3 mg/kg p.o. twice daily", "value": 46, "unit": "% b"}, {"measurement": "Duration (in hour; mean ± SD)", "setting": "[2]; 0.3 mg/kg × 2 p.o.", "value": "31.1 ± 1.9", "unit": "a hour"}, {"measurement": "Latency (in hour; mean ± SD)", "setting": "[2]; 0.3 mg/kg × 2 p.o.", "value": "34.5 ± 3.4", "unit": "b hour"}, {"measurement": "On day 0 (0-24 hours): frequency of retching and vomiting (mean ± SD)", "setting": "[2]; 0.3 mg/kg × 2 p.o.", "value": 0}, {"measurement": "On day 0 (0-24 hours): number of ferrets with vomiting/ number of tested ferrets", "setting": "[2]; 0.3 mg/kg × 2 p.o.", "value": "0/4"}]}
